The record followed here is publication PMC11054727 (Viruses, 2024).

The target in this experiment is trimeric construct of the SARS-CoV-2 S2 segment (Severe acute respiratory syndrome coronavirus 2, UniProt P0DTC2, A892P/A899P/A942P/F817P/K986P/V987P). The format is binding.

Consider Ivermectin, for which the “binding to S2” value was “did not show any binding”.
